Assay results from PMC7126937 (Bioorganic & Medicinal Chemistry, 2014).

Tested on: influenza virus A/California/7/09 (H1N1)pdm09
Type: cell-based, influenza virus A/California/07/09 (H1N1)pdm09
Conditions: not given

Structure (SMILES) | Antiviral (virus-inhibiting) activity, in words
CC1(C)[C@@H]2CC[C@@]1(C)/C(=N/CCCCCCCCCCCC/N=C1\C[C@H]3CC[C@]1(C)C3(C)C)C2 [Compound 2e, N^1E,N^12E-N^1,N^12-bis((1R,2R,4R)-1,7,7-trimethylbicyclo[2.2.1]heptan-2-ylidene)dodecane-1,12-diamine] | highest antiviral activity
CC1(C)[C@@H]2CC[C@@]1(C)/C(=N/c1ccc(Cc3ccc(/N=C4\C[C@H]5CC[C@]4(C)C5(C)C)cc3)cc1)C2 [Compound 2f, (E)-N-((1R,2R,4R)-1,7,7-trimethylbicyclo[2.2.1]heptan-2-ylidene)-4-(4-((E)-((1R,2R,4R)-1,7,7-trimethylbicyclo[2.2.1]heptan-2-ylidene)amino)benzyl)aniline] | did not exhibit high antiviral activity
CC1(C)[C@@H]2CC[C@@]1(C)/C(=N/CCCCCCC/N=C1\C[C@H]3CC[C@]1(C)C3(C)C)C2 [Compound 2c, N^1E,N^7E-N^1,N^7-bis((1R,2R,4R)-1,7,7-trimethylbicyclo[2.2.1]heptan-2-ylidene)heptane-1,7-diamine] | highest antiviral activity
CC1(C)[C@@H]2CC[C@@]1(C)/C(=N/CCCCCC/N=C1\C[C@H]3CC[C@]1(C)C3(C)C)C2 [Compound 2b, N^1E,N^6E-N^1,N^6-bis((1R,2R,4R)-1,7,7-trimethylbicyclo[2.2.1]heptan-2-ylidene)hexane-1,6-diamine] | highest antiviral activity
CC1(C)C2CC[C@@]1(C)C(=O)C2 [Compound 1, (1R)-(+)-camphor, reference compound] | does not possess a virus-inhibiting activity
CC1(C)[C@@H]2CC[C@@]1(C)[C@H](Nc1ccc(Oc3ccc(N[C@@H]4C[C@H]5CC[C@]4(C)C5(C)C)cc3)cc1)C2 [Compound 3g, (1R,2R,4R)-1,7,7-trimethyl-N-(4-(4-((1R,2R,4R)-1,7,7-trimethylbicyclo[2.2.1]heptan-2-ylamino)phenoxy)phenyl)bicyclo[2.2.1]heptan-2-amine] | did not exhibit high antiviral activity
CC1(C)[C@@H]2CC[C@@]1(C)/C(=N/c1ccc(Cc3ccc(N)cc3)cc1)C2 [Compound 5f, (E)-4-(4-aminobenzyl)-N-((1R,2R,4R)-1,7,7-trimethylbicyclo[2.2.1]heptan-2-ylidene)aniline] | did not exhibit high antiviral activity
CC1(C)[C@@H]2CC[C@@]1(C)/C(=N/CCC/N=C1\C[C@H]3CC[C@]1(C)C3(C)C)C2 [Compound 2a, N^1E,N^3E-N^1,N^3-bis((1R,2R,4R)-1,7,7-trimethylbicyclo[2.2.1]heptan-2-ylidene)propane-1,3-diamine] | highest antiviral activity

Tested on: influenza virus A/California/7/09 (H1N1)pdm09
Conditions: cited from earlier work

Structure (SMILES) | ED50 (50% effective concentration) [µM]
NC(=O)c1ncn([C@@H]2O[C@H](CO)[C@@H](O)[C@H]2O)n1 [Ribavirin] | 24.6
